Values joined by “and” are separate entries in the source; they are usually repeats but may differ in a detail not shown here. Identical values can stand only once. Toxic doses and inconclusive results are not listed. The calls were made as follows: active = survival T/C of 150% or more; inactive = T/C below 125% in these data. Peptide text beside a SMILES is read from it. * marks the point of attachment. Boc = CC(C)(C)OC(=O)*
System: P388 leukemia ip, CD2F1 mice, survival T/C
Assay: NCI In Vivo Anticancer Drug Screen. Data for tumor model P388 Leukemia (intraperitoneal) in CD2F1 (CDF1) mice
Conditions: endpoint: median survival time, higher = longer survival
In short: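 Mice carrying the transplanted tumor received test compound or vehicle. Survival was recorded in each group, and the value is the treated-group measurement divided by that of the vehicle-treated control group.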

[1] = dose: 1.56 mg/kg/injection, schedule: Q01DX005 (ip), vehicle: Klucel (hydroxypropylcellulose) (HPC)
[2] = dose: 3.12 mg/kg/injection, schedule: Q01DX005 (ip), vehicle: Klucel (hydroxypropylcellulose) (HPC)
[3] = dose: 6.25 mg/kg/injection, schedule: Q01DX005 (ip), vehicle: Klucel (hydroxypropylcellulose) (HPC)
[4] = dose: 12.5 mg/kg/injection, schedule: Q01DX005 (ip), vehicle: Klucel (hydroxypropylcellulose) (HPC)
[5] = dose: 50.0 mg/kg/injection, schedule: Q01DX005 (ip), vehicle: saline with Tween-80
[6] = dose: 100.0 mg/kg/injection, schedule: Q01DX005 (ip), vehicle: saline with Tween-80
[7] = dose: 200.0 mg/kg/injection, schedule: Q01DX005 (ip), vehicle: saline with Tween-80
[8] = dose: 50.0 mg/kg/injection, schedule: Q01DX009 (ip), vehicle: saline with Tween-80
[9] = dose: 100.0 mg/kg/injection, schedule: Q01DX009 (ip), vehicle: saline with Tween-80
[10] = dose: 50.0 mg/kg/injection, schedule: Q01DX009 (ip), vehicle: Klucel (hydroxypropylcellulose) (HPC)
[11] = dose: 100.0 mg/kg/injection, schedule: Q01DX009 (ip), vehicle: Klucel (hydroxypropylcellulose) (HPC)
[12] = dose: 200.0 mg/kg/injection, schedule: Q01DX009 (ip), vehicle: Klucel (hydroxypropylcellulose) (HPC)
[13] = dose: 50.0 mg/kg/injection, schedule: Q01DX005 (ip), vehicle: Klucel (hydroxypropylcellulose) (HPC)
[14] = dose: 100.0 mg/kg/injection, schedule: Q01DX005 (ip), vehicle: Klucel (hydroxypropylcellulose) (HPC)
[15] = dose: 200.0 mg/kg/injection, schedule: Q01DX005 (ip), vehicle: Klucel (hydroxypropylcellulose) (HPC)
[16] = dose: 50.0 mg/kg/injection, schedule: Q01DX009 (ip), vehicle: saline
[17] = dose: 200.0 mg/kg/injection, schedule: Q01DX009 (ip), vehicle: saline
[18] = dose: 25.0 mg/kg/injection, schedule: Q01DX009 (ip), vehicle: Klucel (hydroxypropylcellulose) (HPC)
[19] = dose: 50.0 mg/kg/injection, schedule: Q01DX005 (ip), vehicle: saline
[20] = dose: 100.0 mg/kg/injection, schedule: Q01DX005 (ip), vehicle: saline
[21] = dose: 200.0 mg/kg/injection, schedule: Q01DX009 (ip), vehicle: saline with Tween-80

Measured: T/C

OCC(O)C(O)Cc1cnc(C(O)C(O)C(O)CO)cn1 (centres undefined)
inactive: dose: 50.0 mg/kg/injection, schedule: Q01DX009 (ip), vehicle: other 93 % of control | dose: 100.0 mg/kg/injection, schedule: Q01DX009 (ip), vehicle: other 96 % of control | dose: 200.0 mg/kg/injection, schedule: Q01DX009 (ip), vehicle: other 102 % of control | dose: 400.0 mg/kg/injection, schedule: Q01DX009 (ip), vehicle: other 108 % of control | dose: 800.0 mg/kg/injection, schedule: Q01DX009 (ip), vehicle: other 102 % of control

COc1ccc2c(Cc3ccccc3)c3[n+](cc2c1OC)CCc1cc2c(cc1-3)OCO2
inactive: [1] 113 % of control | [2] 115 % of control | [3] 113 % of control and 115 % of control | [4] 118 % of control

CC1(C)SC=C2C1=CSC2(C)C
inactive: [5] 101 % of control | [6] 96 % of control | [7] 95 % of control

CC(=O)N(C)O
inactive: [8] 100 % of control and 104 % of control | [9] 105 % of control and 110 % of control | [7] 121 % of control
active: dose: 400.0 mg/kg/injection, schedule: Q01DX009 (ip), vehicle: saline with Tween-80 160 % of control

CCCOCC(O)CNCCN (centres undefined)
inactive: [10] 100 % of control | [11] 102 % of control | [12] 109 % of control

NC(=S)c1ccc2ccccc2c1
inactive: [13] 100 % of control | [14] 100 % of control | [15] 100 % of control

CCCCc1c(C(=O)OCC)oc(C(=O)OCC)c(CCCC)c1=O
inactive: dose: 12.5 mg/kg/injection, schedule: Q04DX003 (ip), vehicle: Klucel (hydroxypropylcellulose) (HPC) 108 % of control | dose: 25.0 mg/kg/injection, schedule: Q04DX003 (ip), vehicle: Klucel (hydroxypropylcellulose) (HPC) 104 % of control | dose: 50.0 mg/kg/injection, schedule: Q04DX003 (ip), vehicle: Klucel (hydroxypropylcellulose) (HPC) 103 % of control | dose: 100.0 mg/kg/injection, schedule: Q04DX003 (ip), vehicle: Klucel (hydroxypropylcellulose) (HPC) 100 % of control | dose: 200.0 mg/kg/injection, schedule: Q04DX003 (ip), vehicle: Klucel (hydroxypropylcellulose) (HPC) 104 % of control | dose: 400.0 mg/kg/injection, schedule: Q04DX003 (ip), vehicle: Klucel (hydroxypropylcellulose) (HPC) 106 % of control

C=C1C(=O)O[C@H]2/C=C(/C)C3=CC(=O)[C@@](C)(C[C@@H](OC(=O)/C(C)=C\C)C12)O3 (some centres undefined)
inactive: [1] 102 % of control | [2] 105 % of control | [3] 105 % of control | [4] 89 % of control and 96 % of control

Cc1cnc(NCCCCNc2ncc(C)c(-c3ccccc3O)n2)nc1-c1ccccc1O
inactive: [13] 101 % of control | [14] 101 % of control | [15] 89 % of control

Cc1noc(NS(=O)(=O)c2ccc(N=c3c4ccccc4n(Cc4ccccc4)c4ccccc34)cc2)c1C
inactive: [5] 96 % of control | [6] 94 % of control | [7] 87 % of control

CN(C)CC[CH2][Sn]([CH3])([Br])[Br]
inactive: dose: 1.56 mg/kg/injection, schedule: Q01DX009 (ip), vehicle: saline 100 % of control and 101 % of control

CC1=NN(c2ccc(S(=O)(=O)O)cc2)C(=O)C1N=Nc1ccc(-c2ccc(N=Nc3ccc(OS(=O)(=O)c4ccc(C)cc4)cc3)c(S(=O)(=O)O)c2)cc1 (centres undefined)
inactive: [16] 100 % of control | dose: 100.0 mg/kg/injection, schedule: Q01DX009 (ip), vehicle: saline 100 % of control | [17] 97 % of control

COC(=O)C(=O)c1c(C(=O)OC)nc2[nH]n(-c3ccccc3)c(=O)c2c1Cc1ccccc1
inactive: dose: 60.0 mg/kg/injection, schedule: Q01DX005 (ip), vehicle: saline with Tween-80 98 % of control | dose: 120.0 mg/kg/injection, schedule: Q01DX005 (ip), vehicle: saline with Tween-80 100 % of control | dose: 240.0 mg/kg/injection, schedule: Q01DX005 (ip), vehicle: saline with Tween-80 91 % of control

Cc1ccc(S(=O)(=O)N/N=C(\C(=O)O)c2ccccc2)cc1
inactive: dose: 12.5 mg/kg/injection, schedule: Q01DX009 (ip), vehicle: Klucel (hydroxypropylcellulose) (HPC) 102 % of control | [18] 97 % of control | [10] 96 % of control | [11] 94 % of control | [12] 93 % of control

CC(=O)NC1CC(C)(C)NC(C)(C)C1
inactive: dose: 12.5 mg/kg/injection, schedule: Q01DX009 (ip), vehicle: saline 100 % of control | dose: 25.0 mg/kg/injection, schedule: Q01DX009 (ip), vehicle: saline 96 % of control | [16] 114 % of control and 88 % of control | [17] 95 % of control

CCOC(=O)C1=C(C)O/C(=C/c2ccco2)C1=O
inactive: [18] 103 % of control | [10] 109 % of control | [11] 110 % of control and 111 % of control

CCN(CC)Cc1cc(Nc2c3ccc([N+](=O)[O-])cc3nc3ccc(OC)cc23)ccc1O
inactive: [19] 99 % of control | [20] 103 % of control | dose: 200.0 mg/kg/injection, schedule: Q01DX005 (ip), vehicle: saline 101 % of control

CCCCCCCCCCCCCCN=Cc1c(O)c(O)c(C(C)C)c2cc(C)c(-c3c(C)cc4c(C(C)C)c(O)c(O)c(C=NCCCCCCCCCCCCCC)c4c3O)c(O)c12
inactive: [4] 98 % of control | dose: 25.0 mg/kg/injection, schedule: Q01DX005 (ip), vehicle: Klucel (hydroxypropylcellulose) (HPC) 90 % of control | [13] 98 % of control | [14] 95 % of control

CC1=CC(=O)C=CC1(C)C(Cl)(Cl)Cl (centres undefined)
inactive: [8] 110 % of control | [9] 110 % of control | [21] 105 % of control

CCC(C)C(NC(=O)OC(C)(C)C)C(=O)NC(CCSC)C(N)=O (stereo not drawn) (Boc-Ile-Met-NH2; configuration not given here)
inactive: [13] 97 % of control | [14] 95 % of control | [15] 89 % of control

CCCCCN(CCCCC)CC(C)(O)CNc1cc(OC)cc2cccnc12 (centres undefined)
inactive: [19] 95 % of control | [20] 87 % of control

CCOC(=O)C1C2(C)NC(=O)C1(Cc1ccccc1)c1ccc(O)cc1O2 (centres undefined)
inactive: [5] 95 % of control | [6] 96 % of control | [7] 95 % of control

CCC(CCC(C)C1CCC2C3CC=C4CC(O)CCC4(C)C3CCC12C)C(C)C (centres undefined) (tested in a mixture with another compound)
inactive: [10] 105 % of control | [11] 90 % of control

CCCNc1ncc(C(=O)O)c(=O)[nH]1
inactive: dose: 1.56 mg/kg/injection, schedule: Q01DX009 (ip), vehicle: saline with Tween-80 104 % of control | dose: 3.12 mg/kg/injection, schedule: Q01DX009 (ip), vehicle: saline with Tween-80 95 % of control | dose: 6.25 mg/kg/injection, schedule: Q01DX009 (ip), vehicle: saline with Tween-80 95 % of control

CSCc1cc(Cl)ccc1N
inactive: [8] 97 % of control | [9] 97 % of control | [21] 97 % of control

Nc1ccc(O)c2c1C(=O)c1ccccc1C2=O
inactive: [5] 93 % of control | [6] 111 % of control | [7] 101 % of control

CN(C)/N=C1\C(=O)Nc2ccc(Br)cc21
inactive: [10] 100 % of control | [11] 113 % of control | [12] 108 % of control

CC(=O)OC(C[Se]c1ccccc1)OC(C)=O
inactive: dose: 37.5 mg/kg/injection, schedule: Q01DX001 (ip), vehicle: saline with Tween-80 105 % of control | dose: 75.0 mg/kg/injection, schedule: Q01DX001 (ip), vehicle: saline with Tween-80 99 % of control and 105 % of control

S=C1NCCCN1
inactive: dose: 25.0 mg/kg/injection, schedule: Q04DX003 (ip), vehicle: saline 99 % of control | dose: 50.0 mg/kg/injection, schedule: Q04DX003 (ip), vehicle: saline 104 % of control | dose: 100.0 mg/kg/injection, schedule: Q04DX003 (ip), vehicle: saline 100 % of control | dose: 200.0 mg/kg/injection, schedule: Q04DX003 (ip), vehicle: saline 100 % of control

CC(=O)OC1CC2CCCCC2CC1[N+](C)(C)C (centres undefined)
inactive: dose: 12.5 mg/kg/injection, schedule: Q01DX009 (ip), vehicle: saline with Tween-80 108 % of control | dose: 25.0 mg/kg/injection, schedule: Q01DX009 (ip), vehicle: saline with Tween-80 112 % of control | [8] 103 % of control and 94 % of control | [16] 105 % of control
